Reference: patent US7078177B2, “Method of assaying for agonists or antagonist of Dynorphin A binding to the MAS receptor” (AstraZeneca AB, priority 2000, dated 2006)
Ends that are not written are not given here.

Assays:
MAS receptor = assay: FLIPR calcium mobilization assay, HEK-293 cells expressing MAS receptor; format: cell-based, rat and human; details: HEK-293 cells expressing the clone MAS receptor; Fluo-3
Method: HEK-293 cells were transfected with a mammalian expression construct coding for the rat and human MAS receptor (pcDNA 3.1 vector, Invitrogen) using the Superfect reagent (Qiagen). A stable receptor pool of MAS receptor was developed by applying a selection marker (G418, 0.9 mg/ml) and the cells were maintained in this selection medium. The presence of mRNA specific for clone MAS receptor was assessed by Northern blot analysis and by the reverse transcriptase polymerase chain reaction (RT-PCR).
(§1) A functional assay was performed with FLIPR (Fluorescent Imaging Plate Reader, Molecular Devices) using the fluorescent calcium indicator Fluo-3 (Molecular Probes) on a 96 well platform. HEK-293 cells, either expressing the receptor or wild type cells, were loaded with Fluo-3 as follows. Stable HEK-293 clones expressing rat and human MAS receptor or parental cells were plated at a density of 10,000 cells/well in a 96 well plate. On the day of the experiment, the MAS receptor cells were loaded with fluorescent solution (Dulbecco's modified medium with 10% fetal bovine serum containing 4 μM Fluo-3 and 20% pluronic acid). The cells were incubated at 37° C. for one hour in a humidified chamber. Following the incubation step, cells were washed five times in Hanks' with 20 mM Hepes and 0.1% BSA (pH 7.4). The cells were analyzed using the FLIPR system to measure the mobilization of intracellular calcium in response to different compounds.

parental HEK-293 cells = assay: FLIPR calcium mobilization assay, parental (non-transfected) HEK-293 cells; format: cell-based; details: wild type (parental, non-transfected) HEK-293 cells; Fluo-3
Method: as §1

[1] = non-thermal and mechanical analgesia, administered ICV; cited from earlier work
[2] = system: mouse peritoneal macrophages; details: administered to mice; not inhibited by naloxone; cited from earlier work

| Substance | calcium response (FLIPR signal) (MAS receptor) | calcium response (FLIPR signal) (parental HEK-293 cells) | analgesia [1] | phagocytosis [2] |
| --- | --- | --- | --- | --- |
| YGGFLRRIRPKLKWDNQ-COOH or NH2 (not fully specified; printed as YGGFLRRIRPKLKWDNQ-COOH or NH2) [Dynorphin A-NH2, C-terminal amide analogue of Dynorphin A] | consistently elicited signals | not in the wild type cells |  |  |
| YGGFLRRIRPKLKWDNQ-COOH (YGGFLRRIRPKLKWDNQ-OH) [Dynorphin A] | consistently elicited signals | not in the wild type cells | moderately effective | enhanced phagocytosis |
| Dynorphin A 1-13: analogue (fragment 1-13) of Dynorphin A (YGGFLRRIRPKLK; Dynorphin A(1-13); UniProt P01213 207-219, looked up, fragment) | consistently elicited signals | not in the wild type cells |  |  |
